Laboratory results from ChEMBL document CHEMBL1125669, “Synthesis of potential dual-acting radiation sensitizer antineoplastic agents: 2,2-dimethylphosphoraziridines containing 2-nitroimidazoles or other electron-affinic moieties” (1991).

What was measured:
Assay type in all cases: functional
Mus musculus [1] = experiment: In vivo antitumor activity against P-388 leukemia in CDF1 mice at 32 mg or 84 umol by ip administration expressed as median survival time of drug treated mice/median survival time of control mice x100
Mus musculus [2] = experiment: In vivo antitumor activity against P-388 leukemia in CDF1 mice at 64 mg or 167 umol by ip administration expressed as average wt. change determined between day 0 and day 6 of experiment
Mus musculus [3] = experiment: In vivo antitumor activity against P-388 leukemia in CDF1 mice at 16 mg or 42 umol by ip administration expressed as average wt. change determined between day 0 and day 6 of experiment
Mus musculus [4] = experiment: In vivo antitumor activity against P-388 leukemia in CDF1 mice at 256 mg or 670 umol by ip administration expressed as median survival time of drug treated mice/median survival time of control mice x100
Mus musculus [5] = experiment: In vivo antitumor activity against P-388 leukemia in CDF1 mice at 8 mg or 21 umol by ip administration expressed as median survival time of drug treated mice/median survival time of control mice x100
Mus musculus [6] = experiment: In vivo antitumor activity against P-388 leukemia in CDF1 mice at 16 mg or 42 umol by ip administration expressed as median survival time of drug treated mice/median survival time of control mice x100
Mus musculus [7] = experiment: In vivo antitumor activity against P-388 leukemia in CDF1 mice at 128 mg or 335 umol by ip administration expressed as average wt. change determined between day 0 and day 6 of experiment
Mus musculus [8] = experiment: In vivo antitumor activity against P-388 leukemia in CDF1 mice at 32 mg or 84 umol by ip administration expressed as average wt. change determined between day 0 and day 6 of experiment
Mus musculus [9] = experiment: In vivo antitumor activity against P-388 leukemia in CDF1 mice at 256 mg or 670 umol by ip administration expressed as average wt. change determined between day 0 and day 6 of experiment
Mus musculus [10] = experiment: In vivo antitumor activity against P-388 leukemia in CDF1 mice at 64 mg or 167 umol by ip administration expressed as median survival time of drug treated mice/median survival time of control mice x100
Mus musculus [11] = experiment: In vivo antitumor activity against P-388 leukemia in CDF1 mice at 8 mg or 21 umol by ip administration expressed as average wt. change determined between day 0 and day 6 of experiment
Mus musculus [12] = experiment: In vivo antitumor activity against P-388 leukemia in CDF1 mice at 128 mg or 335 umol by ip administration expressed as median survival time of drug treated mice/median survival time of control mice x100
Mus musculus [13] = experiment: In vivo antitumor activity against P-388 leukemia in CDF1 mice at 16 mg or 41 umol by ip administration expressed as average wt. change determined between day 0 and day 6 of experiment
Mus musculus [14] = experiment: In vivo antitumor activity against P-388 leukemia in CDF1 mice at 16 mg or 41 umol by ip administration expressed as median survival time of drug treated mice/median survival time of control mice x100
Mus musculus [15] = experiment: In vivo antitumor activity against P-388 leukemia in CDF1 mice at 32 mg or 83 umol by ip administration expressed as median survival time of drug treated mice/median survival time of control mice x100
Mus musculus [16] = experiment: In vivo antitumor activity against P-388 leukemia in CDF1 mice at 256 mg or 661 umol by ip administration expressed as median survival time of drug treated mice/median survival time of control mice x100
Mus musculus [17] = experiment: In vivo antitumor activity against P-388 leukemia in CDF1 mice at 64 mg or 165 umol by ip administration expressed as average wt. change determined between day 0 and day 6 of experiment
Mus musculus [18] = experiment: In vivo antitumor activity against P-388 leukemia in CDF1 mice at 64 mg or 165 umol by ip administration expressed as median survival time of drug treated mice/median survival time of control mice x100
Mus musculus [19] = experiment: In vivo antitumor activity against P-388 leukemia in CDF1 mice at 128 mg or 330 umol by ip administration expressed as average wt. change determined between day 0 and day 6 of experiment
Mus musculus [20] = experiment: In vivo antitumor activity against P-388 leukemia in CDF1 mice at 128 mg or 330 umol by ip administration expressed as median survival time of drug treated mice/median survival time of control mice x100
Mus musculus [21] = experiment: In vivo antitumor activity against P-388 leukemia in CDF1 mice at 256 mg or 661 umol by ip administration expressed as average wt. change determined between day 0 and day 6 of experiment
Mus musculus [22] = experiment: In vivo antitumor activity against P-388 leukemia in CDF1 mice at 32 mg or 83 umol by ip administration expressed as average wt. change determined between day 0 and day 6 of experiment
Mus musculus [23] = experiment: In vivo antitumor activity against P-388 leukemia in CDF1 mice at 50 mg or 182 umol by ip administration expressed as median survival time of drug treated mice/median survival time of control mice x100
Mus musculus [24] = experiment: In vivo antitumor activity against P-388 leukemia in CDF1 mice at 50 mg or 182 umol by ip administration expressed as average wt. change determined between day 0 and day 6 of experiment
Mus musculus [25] = experiment: In vivo antitumor activity against P-388 leukemia in CDF1 mice at 100 mg or 363 umol by ip administration expressed as average wt. change determined between day 0 and day 6 of experiment
Mus musculus [26] = experiment: In vivo antitumor activity against P-388 leukemia in CDF1 mice at 200 mg or 727 umol by ip administration expressed as median survival time of drug treated mice/median survival time of control mice x100
Mus musculus [27] = experiment: In vivo antitumor activity against P-388 leukemia in CDF1 mice at 400 mg or 1453 umol by ip administration expressed as average wt. change determined between day 0 and day 6 of experiment
Mus musculus [28] = experiment: In vivo antitumor activity against P-388 leukemia in CDF1 mice at 400 mg or 1453 umol by ip administration expressed as median survival time of drug treated mice/median survival time of control mice x100
Mus musculus [29] = experiment: In vivo antitumor activity against P-388 leukemia in CDF1 mice at 200 mg or 727 umol by ip administration expressed as average wt. change determined between day 0 and day 6 of experiment
Mus musculus [30] = experiment: In vivo antitumor activity against P-388 leukemia in CDF1 mice at 100 mg or 363 umol by ip administration expressed as median survival time of drug treated mice/median survival time of control mice x100

CC1(C)CN1P(=O)(NC(=O)OCc1ccc([N+](=O)[O-])cc1)N1CC1(C)C (configuration not stated)
T/C (Mus musculus [1]): 106%
Average weight change (Mus musculus [2]): 1.4 g
Average weight change (Mus musculus [3]): 1.2 g
T/C (Mus musculus [4]): 119%
T/C (Mus musculus [5]): 113%
T/C (Mus musculus [6]): 113%
Average weight change (Mus musculus [7]): 2 g
Average weight change (Mus musculus [8]): 2.1 g
Average weight change (Mus musculus [9]): 0.6 g
T/C (Mus musculus [10]): 113%
Average weight change (Mus musculus [11]): 1.4 g
T/C (Mus musculus [12]): 113%

COCC(Cn1ccnc1[N+](=O)[O-])OP(=O)(N1CC1(C)C)N1CC1(C)C (configuration not stated)
Average weight change (Mus musculus [13]): 0.8 g
T/C (Mus musculus [14]): 100%
T/C (Mus musculus [15]): 122%
T/C (Mus musculus [16]): 200%
Average weight change (Mus musculus [17]): 0.2 g
T/C (Mus musculus [5]): 106%
T/C (Mus musculus [18]): 133%
Average weight change (Mus musculus [19]): -0.3 g
Average weight change (Mus musculus [11]): 1.2 g
T/C (Mus musculus [20]): 150%
Average weight change (Mus musculus [21]): -1.5 g
Average weight change (Mus musculus [22]): 0.4 g

CCOC(=O)NP(=O)(N1CC1(C)C)N1CC1(C)C (configuration not stated) [METUREDEPA]
T/C (Mus musculus [23]): 163%
Average weight change (Mus musculus [24]): -0.7 g
Average weight change (Mus musculus [25]): -0.4 g
T/C (Mus musculus [26]): 231%
Average weight change (Mus musculus [27]): -1.3 g
T/C (Mus musculus [28]): 244%
Average weight change (Mus musculus [29]): -0.2 g
T/C (Mus musculus [30]): 181%
